Laboratory results taken from the supplement of paper PMC10307832.

Experiments:
Assay in all cases: relative viability (nuclei count vs DMSO), 5 days (fraction); higher = more cells survive
A-427 = system: A-427
Summary of the method: (§1)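 Lung cancer cell lines were seeded in 1536-well plates and dosed by pin tool the next day, with either a single drug or a fixed anchor-drug dose combined with five library-drug doses (not always all listed) spaced in √10 steps. Five days later, one step fixed the cells and stained their nuclei (final 0.05% Triton X-100, 1% formaldehyde, 1 ug/ml Hoechst), and nuclei were counted on 4× images. Relative viability is the nuclei count in treated wells divided by the count in vehicle wells, and each value is the median of duplicate plates.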

A549 = system: A549
Summary of the method: as §1

CAL-12T = system: CAL-12T
Summary of the method: as §1

Calu-6 = system: Calu-6
Summary of the method: as §1

EBC-1 = system: EBC-1
Summary of the method: as §1

IA-LM = system: IA-LM
Summary of the method: as §1

LK-2 = system: LK-2
Summary of the method: as §1

NCI-H1299 = system: NCI-H1299
Summary of the method: as §1

NCI-H1648 = system: NCI-H1648
Summary of the method: as §1

NCI-H1650 = system: NCI-H1650
Summary of the method: as §1

NCI-H1703 = system: NCI-H1703
Summary of the method: as §1

NCI-H1734 = system: NCI-H1734
Summary of the method: as §1

NCI-H2009 = system: NCI-H2009
Summary of the method: as §1

UMC-11 = system: UMC-11
Summary of the method: as §1

In the case of `CCN(CC)CCCCNc1ncc2cc(-c3cc(OC)cc(OC)c3)c(NC(=O)NC(C)(C)C)nc2n1` + O=C(c1cc(Cc2n[nH]c(=O)c3ccccc23)ccc1F)N1CCN(C(=O)C2CC2)CC1 [Olaparib] (partner 8 µM), the relative viability (A-427; first compound 0.01 µM) is reported as 0.781, the relative viability (A-427; first compound 0.03162 µM) is reported as 0.746 and the relative viability (A-427; first compound 0.1 µM) is reported as 0.838. The relative viability (A-427; first compound 0.3162 µM) was 0.816, the relative viability (A-427; first compound 1 µM) was 0.685 and the relative viability (A549; first compound 0.01 µM) was 0.273. It also gave a relative viability (A549; first compound 0.03162 µM) of 0.367, a relative viability (A549; first compound 0.1 µM) of 0.318 and a relative viability (A549; first compound 0.3162 µM) of 0.32. It also gave a relative viability (A549; first compound 1 µM) of 0.349, a relative viability (CAL-12T; first compound 0.01 µM) of 0.678 and a relative viability (CAL-12T; first compound 0.03162 µM) of 0.78. The relative viability (CAL-12T; first compound 0.1 µM) was 0.829, the relative viability (CAL-12T; first compound 0.3162 µM) was 0.845 and the relative viability (CAL-12T; first compound 1 µM) was 0.763. The relative viability (Calu-6; first compound 0.03162 µM) was 0.583, the relative viability (Calu-6; first compound 0.1 µM) was 0.627 and the relative viability (Calu-6; first compound 0.3162 µM) was 0.694. It also gave a relative viability (Calu-6; first compound 1 µM) of 0.556, a relative viability (EBC-1; first compound 0.01 µM) of 0.738 and a relative viability (EBC-1; first compound 0.03162 µM) of 0.684. It also gave a relative viability (EBC-1; first compound 0.1 µM) of 0.779, a relative viability (EBC-1; first compound 0.3162 µM) of 0.824 and a relative viability (EBC-1; first compound 1 µM) of 0.705. The relative viability (IA-LM; first compound 0.01 µM) was 0.821, the relative viability (IA-LM; first compound 0.03162 µM) was 0.88 and the relative viability (IA-LM; first compound 0.1 µM) was 0.946. The relative viability (IA-LM; first compound 0.3162 µM) was 0.762, the relative viability (IA-LM; first compound 1 µM) was 0.936 and the relative viability (LK-2; first compound 0.01 µM) was 0.634. It also gave a relative viability (LK-2; first compound 0.03162 µM) of 0.547, a relative viability (LK-2; first compound 0.1 µM) of 0.714 and a relative viability (LK-2; first compound 0.3162 µM) of 0.457. It also gave a relative viability (LK-2; first compound 1 µM) of 0.226, a relative viability (NCI-H1299; first compound 0.01 µM) of 1.03 and a relative viability (NCI-H1299; first compound 0.03162 µM) of 0.991. The relative viability (NCI-H1299; first compound 0.1 µM) was 1.01, the relative viability (NCI-H1299; first compound 0.3162 µM) was 1.04 and the relative viability (NCI-H1299; first compound 1 µM) was 0.998. For the same compound, the relative viability (NCI-H1648; first compound 0.01 µM) was 0.991, the relative viability (NCI-H1648; first compound 0.03162 µM) was 0.767 and the relative viability (NCI-H1648; first compound 0.1 µM) was 0.781. It also gave a relative viability (NCI-H1648; first compound 0.3162 µM) of 0.703, a relative viability (NCI-H1648; first compound 1 µM) of 0.648 and a relative viability (NCI-H1650; first compound 0.01 µM) of 0.815. The relative viability (NCI-H1650; first compound 0.03162 µM) was 0.819, the relative viability (NCI-H1650; first compound 0.1 µM) was 0.822 and the relative viability (NCI-H1650; first compound 0.3162 µM) was 0.635. For the same compound, the relative viability (NCI-H1650; first compound 1 µM) was 0.676, the relative viability (NCI-H1703; first compound 0.01 µM) was 0.313 and the relative viability (NCI-H1703; first compound 0.03162 µM) was 0.421. The relative viability (NCI-H1703; first compound 0.1 µM) was 0.52, the relative viability (NCI-H1703; first compound 0.3162 µM) was 0.383 and the relative viability (NCI-H1703; first compound 1 µM) was 0.388. It also gave a relative viability (NCI-H1734; first compound 0.01 µM) of 0.595, a relative viability (NCI-H1734; first compound 0.03162 µM) of 0.614 and a relative viability (NCI-H1734; first compound 0.1 µM) of 0.746. For the same compound, the relative viability (NCI-H1734; first compound 0.3162 µM) was 0.638, the relative viability (NCI-H1734; first compound 1 µM) was 0.569 and the relative viability (NCI-H2009; first compound 0.01 µM) was 0.828. The relative viability (NCI-H2009; first compound 0.03162 µM) was 0.696, the relative viability (NCI-H2009; first compound 0.1 µM) was 0.699 and the relative viability (NCI-H2009; first compound 0.3162 µM) was 0.75. It also gave a relative viability (NCI-H2009; first compound 1 µM) of 0.7, a relative viability (UMC-11; first compound 0.01 µM) of 0.39 and a relative viability (UMC-11; first compound 0.03162 µM) of 0.372. The relative viability (UMC-11; first compound 0.1 µM) was 0.422, the relative viability (UMC-11; first compound 0.3162 µM) was 0.353 and the relative viability (UMC-11; first compound 1 µM) was 0.422.
Work on `O=c1cc(N2CCOCC2)oc2c(-c3cccc4c3sc3ccccc34)cccc12` + NC(=O)Nc1cc(-c2cccc(F)c2)sc1C(=O)N[C@H]1CCCNC1 [AZD7762] (partner 0.2 µM) yielded a relative viability (A-427; first compound 0.01 µM) of 0.731, a relative viability (A-427; first compound 0.03162 µM) of 0.767 and a relative viability (A-427; first compound 0.1 µM) of 0.529. For the same compound, the relative viability (A-427; first compound 0.3162 µM) was 0.795, the relative viability (A-427; first compound 1 µM) was 0.735 and the relative viability (CAL-12T; first compound 0.01 µM) was 0.58. It also gave a relative viability (CAL-12T; first compound 0.03162 µM) of 0.541, a relative viability (CAL-12T; first compound 0.1 µM) of 0.852 and a relative viability (CAL-12T; first compound 0.3162 µM) of 0.676. The relative viability (CAL-12T; first compound 1 µM) was 0.498, the relative viability (LK-2; first compound 0.01 µM) was 0.468 and the relative viability (LK-2; first compound 0.03162 µM) was 0.369. For the same compound, the relative viability (LK-2; first compound 0.1 µM) was 0.262, the relative viability (LK-2; first compound 0.3162 µM) was 0.369 and the relative viability (LK-2; first compound 1 µM) was 0.354. It also gave a relative viability (NCI-H1648; first compound 0.03162 µM) of 0.889, a relative viability (NCI-H1648; first compound 0.1 µM) of 0.714 and a relative viability (NCI-H1648; first compound 0.3162 µM) of 0.609. The relative viability (NCI-H1648; first compound 1 µM) was 0.746, the relative viability (NCI-H1703; first compound 0.01 µM) was 0.143 and the relative viability (NCI-H1703; first compound 0.03162 µM) was 0.137. The relative viability (NCI-H1703; first compound 0.3162 µM) was 0.146, the relative viability (NCI-H1703; first compound 1 µM) was 0.131 and the relative viability (NCI-H1734; first compound 0.01 µM) was 0.604. It also gave a relative viability (NCI-H1734; first compound 0.03162 µM) of 0.568, a relative viability (NCI-H1734; first compound 0.1 µM) of 0.112 and a relative viability (NCI-H1734; first compound 0.3162 µM) of 0.596. It also gave a relative viability (NCI-H1734; first compound 1 µM) of 0.494.
Compound `CCN(CC)CCCCNc1ncc2cc(-c3cc(OC)cc(OC)c3)c(NC(=O)NC(C)(C)C)nc2n1` + NC(=O)Nc1cc(-c2cccc(F)c2)sc1C(=O)N[C@H]1CCCNC1 [AZD7762] (partner 0.2 µM) has a relative viability (A-427; first compound 0.01 µM) of 0.722, a relative viability (A-427; first compound 0.03162 µM) of 0.671 and a relative viability (A-427; first compound 0.1 µM) of 0.778. For the same compound, the relative viability (A-427; first compound 0.3162 µM) was 0.549, the relative viability (A-427; first compound 1 µM) was 0.421 and the relative viability (CAL-12T; first compound 0.01 µM) was 0.594. It also gave a relative viability (CAL-12T; first compound 0.03162 µM) of 0.564, a relative viability (CAL-12T; first compound 0.1 µM) of 0.796 and a relative viability (CAL-12T; first compound 0.3162 µM) of 0.758. For the same compound, the relative viability (CAL-12T; first compound 1 µM) was 0.641, the relative viability (LK-2; first compound 0.01 µM) was 0.471 and the relative viability (LK-2; first compound 0.03162 µM) was 0.394. For the same compound, the relative viability (LK-2; first compound 0.1 µM) was 0.374, the relative viability (LK-2; first compound 0.3162 µM) was 0.276 and the relative viability (LK-2; first compound 1 µM) was 0.197. The relative viability (NCI-H1648; first compound 0.01 µM) was 0.69, the relative viability (NCI-H1648; first compound 0.03162 µM) was 0.688 and the relative viability (NCI-H1648; first compound 0.1 µM) was 0.757. For the same compound, the relative viability (NCI-H1648; first compound 0.3162 µM) was 0.583, the relative viability (NCI-H1648; first compound 1 µM) was 0.445 and the relative viability (NCI-H1703; first compound 0.03162 µM) was 0.0943. For the same compound, the relative viability (NCI-H1703; first compound 0.1 µM) was 0.12, the relative viability (NCI-H1703; first compound 0.3162 µM) was 0.143 and the relative viability (NCI-H1703; first compound 1 µM) was 0.112. It also gave a relative viability (NCI-H1734; first compound 0.01 µM) of 0.534, a relative viability (NCI-H1734; first compound 0.03162 µM) of 0.593 and a relative viability (NCI-H1734; first compound 0.1 µM) of 0.52. For the same compound, the relative viability (NCI-H1734; first compound 0.3162 µM) was 0.604 and the relative viability (NCI-H1734; first compound 1 µM) was 0.486.
